Test results reported in paper PMC6099615, “Anti-glycation, Carbonyl Trapping and Anti-inflammatory Activities of Chrysin Derivatives” (Molecules : A Journal of Synthetic Chemistry and Natural …, 2018).
≈ marks a conversion by molar mass, not a printed value. Counter-ions that a name gives are not always drawn. Like-named read-outs stand apart in the source and are kept apart here. Marks after values point to notes of the source that are not given here. One block for each molecule: values may come before it.

What was measured:
[1] = Water solubility analysis; type: physicochemical; conditions: thermodynamic from solid; distilled water, 37 °C, sonication 1 h
Protocol: CS and derivatives were dissolved in distilled water and incubated at 37 °C with sonication for 1 h to maximize solubility. After sonication, undissolved samples were eliminated by centrifugation (7000× g, 37 °C, 5 min). The supernatants were diluted in methanol and filtered through a 0.45 μm disposable syringe filter (Advantec, Dublin, CA, USA) to analyze the concentration of the samples using HPLC analysis.

[2] = system: Amadori compound formation; test: Hemoglobin-δ-gluconolactone assay of Amadori compound formation; type: biochemical; conditions: for IC50: early stage of AGE formation
AGE formation = test: Bovine serum albumin-methylglyoxal assay on AGE formation; type: biochemical; conditions: for IC50: BSA-methylglyoxal, 37 °C, 48 h
Protocol: Bovine serum albumin (50 mg/mL) was incubated at 37 °C for 48 h with methylglyoxal (100 mM) in sodium phosphate buffer (0.1 M, pH 7.4) containing 0.2 g/L NaN3 in the presence of various concentrations of the compounds (including a control).
(§1) This test was used to evaluate the ability of samples to inhibit cross-linking of the GK peptide in the presence of D-ribose using the method described by Hwang et al. The GK peptide (26.7 mg/mL) was incubated with D-ribose (200 mg/mL) in sodium phosphate buffer (0.5 M, pH 7.4) containing 0.2 g/L NaN3 under sterile conditions at 37 °C for 72 h. […] All reagents and samples were sterilized by filtration through […] membrane filters. The fluorescence intensity was measured at an excitation wavelength of 355 nm and an emission wavelength of 460 nm with a Luminescence spectrometer LS50B (Perkin-Elmer Ltd., Buckinghamshire, England). AG was used as a positive control.

AGEs cross-linking = test: N-acetyl-glycyl-lysine-methyl ester D-ribose assay on AGE cross-linking; type: biochemical; conditions: for IC50: GK peptide-D-ribose, 37 °C, 72 h
Protocol: as §1

[3] = MGO trapping capacity by HPLC (kinetic study of MGO-conjugated adducts)
Protocol: […] The incubated mixture was filtered using a Microcon YM-10 centrifugal filter unit by centrifugation at 5167× g for 30 min at 4 °C. The filtrate was subsequently analyzed by high-performance liquid chromatography (HPLC) using the methods mentioned in the HPLC analysis section. The samples were then stored at −80 °C for further use.
HPLC was performed on an Agilent1100 series system equipped with a diode-array detector (DAD; Agilent, Sunnyvale, CA, USA) consisting of a vacuum degasser (G1322A), a quaternary pump (G1311A), an auto-sampler (G1313A), a thermostat column compartment (G1316A), and a DAD (G1315B). […] Sample injection volume was 10 μL. The samples were eluted with acidified water (0.1% trifluoroacetic acid, A) and MeOH (B) at a flow rate of 0.7 mL/min. The optimized gradient chromatographic conditions were 5–100% B at 0–40 min; 100–5% B at 40–42 min; and isocratic 5% B at 42–45 min. The detector monitored the eluent at a wavelength of 280 nm.

[4] = cited from earlier work
[5] = chrysin:MGO 1:0.1, incubation 1 h
[6] = chrysin:MGO 1:0.1, incubation 3 h
[7] = chrysin:MGO 1:0.1, incubation 6 h
[8] = chrysin:MGO 1:0.1, incubation 12 h
[9] = chrysin:MGO 1:0.1, incubation 36 h
[10] = chrysin:MGO 1:0.1, incubation 48 h
[11] = chrysin:MGO 1:0.5, incubation 1 h
[12] = chrysin:MGO 1:0.5, incubation 3 h
[13] = chrysin:MGO 1:0.5, incubation 6 h
[14] = chrysin:MGO 1:0.5, incubation 12 h
[15] = chrysin:MGO 1:0.5, incubation 36 h
[16] = chrysin:MGO 1:0.5, incubation 48 h
[17] = chrysin:MGO 1:1, incubation 1 h
[18] = chrysin:MGO 1:1, incubation 3 h
[19] = chrysin:MGO 1:1, incubation 6 h
[20] = chrysin:MGO 1:1, incubation 12 h
[21] = chrysin:MGO 1:1, incubation 36 h
[22] = chrysin:MGO 1:1, incubation 48 h
[23] = chrysin:MGO 1:5, incubation 1 h
[24] = chrysin:MGO 1:5, incubation 3 h
[25] = chrysin:MGO 1:5, incubation 6 h
[26] = chrysin:MGO 1:5, incubation 12 h
[27] = chrysin:MGO 1:5, incubation 36 h
[28] = chrysin:MGO 1:5, incubation 48 h
[29] = chrysin:MGO 1:10, incubation 1 h
[30] = chrysin:MGO 1:10, incubation 3 h
[31] = chrysin:MGO 1:10, incubation 6 h
[32] = chrysin:MGO 1:10, incubation 12 h
[33] = chrysin:MGO 1:10, incubation 12 h, listed as CS
[34] = chrysin:MGO 1:10, incubation 36 h
[35] = chrysin:MGO 1:10, incubation 48 h
[36] = chrysin:MGO 1:10, incubation 48 h, listed as CS
[37] = chrysin:MGO 1:10, incubation 48 h, listed as chrysin

solubility at 1 h [1]: 9 µM (≈ 2.9 µg/mL)
SMILES: CC(C)=CCOc1cc(O)c2c(=O)cc(-c3ccccc3)oc2c1 [7-O-Prenylchrysin, 7-O-prenylchrysin]

SMILES: N=C(N)NN [Aminoguanidine, Aminoguanidine hydrochloride, reference compound]
IC50 [2]: 110 µM
IC50 (AGE formation): 137 µM
IC50 (AGEs cross-linking): 1900 µM

IC50 [2]: 17.4 µM
IC50 (AGE formation): 25 µM
IC50 (AGEs cross-linking): > 2000 µM
solubility at 1 h [1]: 30 µM (≈ 7.63 µg/mL)
SMILES: O=c1cc(-c2ccccc2)oc2cc(O)cc(O)c12 [Chrysin, 5,7-dihydroxyflavone]
inhibitory activity on Amadori compound formation, fold higher than positive control AG ([2]; relative to Aminoguanidine hydrochloride (IC50 = 109.74 μM)): 6.30 fold
HPLC area percentage of chrysin-di-MGO adduct [3, 5]: 0.0%
HPLC area percentage of chrysin-mono-MGO adduct [3, 5]: 1.7%
HPLC area percentage of chrysin-di-MGO adduct [3, 6]: 0.1%
HPLC area percentage of chrysin-mono-MGO adduct [3, 6]: 2.9%
HPLC area percentage of chrysin-di-MGO adduct [3, 7]: 0.1%
HPLC area percentage of chrysin-mono-MGO adduct [3, 7]: 4.0%
HPLC area percentage of chrysin-di-MGO adduct [3, 8]: 0.2%
HPLC area percentage of chrysin-mono-MGO adduct [3, 8]: 7.6%
HPLC area percentage of chrysin-mono-MGO adduct ([3]; chrysin:MGO 1:0.1, incubation 12 h, listed as CS): 8%
HPLC area percentage of chrysin-di-MGO adduct [3, 9]: 1.1%
HPLC area percentage of chrysin-mono-MGO adduct [3, 9]: 19.9%
HPLC area percentage of chrysin-di-MGO adduct [3, 10]: 2.9%
HPLC area percentage of chrysin-mono-MGO adduct [3, 10]: 27.2%
HPLC area percentage of chrysin-di-MGO adduct [3, 11]: 0.0%
HPLC area percentage of chrysin-mono-MGO adduct [3, 11]: 4.1%
HPLC area percentage of chrysin-di-MGO adduct [3, 12]: 0.2%
HPLC area percentage of chrysin-mono-MGO adduct [3, 12]: 7.7%
HPLC area percentage of chrysin-di-MGO adduct [3, 13]: 0.5%
HPLC area percentage of chrysin-mono-MGO adduct [3, 13]: 13.1%
HPLC area percentage of chrysin-di-MGO adduct [3, 14]: 1.1%
HPLC area percentage of chrysin-mono-MGO adduct [3, 14]: 21.4%
HPLC area percentage of chrysin-mono-MGO adduct ([3]; chrysin:MGO 1:0.5, incubation 12 h, listed as CS): 21%
HPLC area percentage of chrysin-di-MGO adduct [3, 15]: 4.1%
HPLC area percentage of chrysin-mono-MGO adduct [3, 15]: 36.5%
HPLC area percentage of chrysin-di-MGO adduct [3, 16]: 7.6%
HPLC area percentage of chrysin-mono-MGO adduct [3, 16]: 45.8%
HPLC area percentage of chrysin-di-MGO adduct [3, 17]: 0.1%
HPLC area percentage of chrysin-mono-MGO adduct [3, 17]: 5.0%
HPLC area percentage of chrysin-di-MGO adduct [3, 18]: 0.3%
HPLC area percentage of chrysin-mono-MGO adduct [3, 18]: 10.8%
HPLC area percentage of chrysin-di-MGO adduct [3, 19]: 0.7%
HPLC area percentage of chrysin-mono-MGO adduct [3, 19]: 18.1%
HPLC area percentage of chrysin-di-MGO adduct [3, 20]: 1.5%
HPLC area percentage of chrysin-mono-MGO adduct [3, 20]: 29.5%
HPLC area percentage of chrysin-mono-MGO adduct ([3]; chrysin:MGO 1:1, incubation 12 h, listed as CS): 30%
HPLC area percentage of chrysin-di-MGO adduct [3, 21]: 6.4%
HPLC area percentage of chrysin-mono-MGO adduct [3, 21]: 45.1%
HPLC area percentage of chrysin-di-MGO adduct [3, 22]: 11.6%
HPLC area percentage of chrysin-mono-MGO adduct [3, 22]: 55.0%
HPLC area percentage of chrysin-di-MGO adduct [3, 23]: 0.3%
HPLC area percentage of chrysin-mono-MGO adduct [3, 23]: 12.4%
HPLC area percentage of chrysin-di-MGO adduct [3, 24]: 0.8%
HPLC area percentage of chrysin-mono-MGO adduct [3, 24]: 19.0%
HPLC area percentage of chrysin-di-MGO adduct [3, 25]: 1.7%
HPLC area percentage of chrysin-mono-MGO adduct [3, 25]: 26.7%
HPLC area percentage of chrysin-di-MGO adduct [3, 26]: 3.6%
HPLC area percentage of chrysin-mono-MGO adduct [3, 26]: 35.6%
HPLC area percentage of chrysin-mono-MGO adduct ([3]; chrysin:MGO 1:5, incubation 12 h, listed as CS): 36%
HPLC area percentage of chrysin-di-MGO adduct [3, 27]: 15.9%
HPLC area percentage of chrysin-mono-MGO adduct [3, 27]: 49.1%
HPLC area percentage of chrysin-di-MGO adduct [3, 28]: 25.2%
HPLC area percentage of chrysin-mono-MGO adduct [3, 28]: 57.5%
HPLC area percentage of chrysin-di-MGO adduct [3, 29]: 0.5%
HPLC area percentage of chrysin-mono-MGO adduct [3, 29]: 11.9 ^a %
HPLC area percentage of chrysin-di-MGO adduct [3, 30]: 1.0%
HPLC area percentage of chrysin-mono-MGO adduct [3, 30]: 21.0%
HPLC area percentage of chrysin-di-MGO adduct [3, 31]: 1.9%
HPLC area percentage of chrysin-mono-MGO adduct [3, 31]: 31.9%
HPLC area percentage of chrysin-di-MGO adduct [3, 32]: 5.7%
HPLC area percentage of chrysin-mono-MGO adduct [3, 32]: 42.1%
HPLC area percentage of chrysin-di-MGO adduct [3, 33]: 6%
HPLC area percentage of chrysin-mono-MGO adduct [3, 33]: 42%
HPLC area percentage of chrysin-di-MGO adduct [3, 34]: 17.3%
HPLC area percentage of chrysin-mono-MGO adduct [3, 34]: 57.4%
HPLC area percentage of chrysin-di-MGO adduct [3, 35]: 29.7%
HPLC area percentage of chrysin-mono-MGO adduct [3, 35]: 63.9%
HPLC area percentage of chrysin-di-MGO adduct [3, 36]: 30%
HPLC area percentage of chrysin-mono-MGO adduct [3, 36]: 64%
HPLC area percentage of chrysin-di-MGO adduct [3, 37]: 29.69%
HPLC area percentage of chrysin-mono-MGO adduct [3, 37]: 63.86%
CS–di MGO adduct formation across ratios ([3]; ratios shown in Table 2B): 0.2–3%
activity against AGE formation, fold higher than AG (AGE formation; relative to AG (IC50 = 136.79 μM)): 5.48 fold
inhibitory activity against AGEs cross-linking (AGEs cross-linking; at a concentration of 10.0 mg/mL): no inhibitory activities

SMILES: C[N+](C)(C)C[C@H](O)CC(=O)[O-] [L-carnitine]
bioavailability ([4]; oral administration): 14–18%

SMILES: CC(=O)O[C@H](CC(=O)[O-])C[N+](C)(C)C [acetyl-L-carnitine]
bioavailability ([4]; in vivo, po): 43%
